Laboratory results from PubChem BioAssay AID2060886 (Molecular Pharmacology Branch, DTP, NCI, 2025).

Tested on: 653999-131-R-J2-PDC complex spheroids, growth inhibition
Experiment: Anticancer human tumor 653999-131-R-J2-PDC patient-derived lung adenocarcinoma cell line growth inhibition [RAS]
Conditions: for IC50: curve of first compound; for viability, T/C: stronger effect = lower value; active means viability on the fitted dose curve at most 10% of control; inactive means the rest
Summary of the method: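 Agents were tested in combination matrices in half-log decrements from a top concentration at or near clinical Cmax (10 microM if undetermined). Targets were multi-cell spheroids of tumour lines plus HUVEC and MSC stromal cells.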

[1] = second compound 0.000949 µM, first compound 0.0316 µM
[2] = second compound 0.000949 µM, first compound 0.1 µM
[3] = second compound 0.000949 µM, first compound 0.316 µM
[4] = second compound 0.000949 µM, first compound 1 µM
[5] = second compound 0.003 µM, first compound 0.0316 µM
[6] = second compound 0.003 µM, first compound 0.1 µM
[7] = second compound 0.003 µM, first compound 0.316 µM
[8] = second compound 0.003 µM, first compound 1 µM
[9] = second compound 0.00949 µM, first compound 0.0316 µM
[10] = second compound 0.00949 µM, first compound 0.1 µM
[11] = second compound 0.00949 µM, first compound 0.316 µM
[12] = second compound 0.00949 µM, first compound 1 µM
[13] = second compound 0.03 µM, first compound 0.0316 µM
[14] = second compound 0.03 µM, first compound 0.1 µM
[15] = second compound 0.03 µM, first compound 0.316 µM
[16] = second compound 0.03 µM, first compound 1 µM
[17] = second compound 0.0949 µM, first compound 0.0316 µM
[18] = second compound 0.0949 µM, first compound 0.1 µM
[19] = second compound 0.0949 µM, first compound 0.316 µM
[20] = second compound 0.0949 µM, first compound 1 µM
[21] = second compound 0.3 µM, first compound 0.0316 µM
[22] = second compound 0.3 µM, first compound 0.1 µM
[23] = second compound 0.3 µM, first compound 0.316 µM
[24] = second compound 0.3 µM, first compound 1 µM
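Further: spheroids exposed to the agents for seven days before the readout.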

C=CC(=O)Nc1cc(Nc2nccc(-c3cn(C)c4ccccc34)n2)c(OC)cc1N(C)CCN(C)C + CCn1c(-c2cccnc2C(C)OC)c2c3cc(ccc31)N1CCOC(CC(NC(=O)C(C(C)C)N(C)C(=O)C3(F)CCN(C(=O)C#CC(C)(C)N(C)C)CC3)C(=O)N3CCCC(N3)C(=O)OCC(C)(C)C2)C1
318 nM: IC50 (second compound 0.003 µM)
717 nM: IC50 (second compound 0.0949 µM)
inactive: viability, T/C (second compound 0.000949 µM, first compound 0.00316 µM) 86.2% | viability, T/C (second compound 0.000949 µM, first compound 0.01 µM) 82.3% | viability, T/C [1] 97.7% | viability, T/C [2] 64.7% | viability, T/C [3] 64.2% | viability, T/C [4] 49.2% | viability, T/C (second compound 0.003 µM, first compound 0.00316 µM) 90.1% | viability, T/C (second compound 0.003 µM, first compound 0.01 µM) 95.8% | viability, T/C [5] 86.3% | viability, T/C [6] 67.1% | viability, T/C [7] 52.5% | viability, T/C [8] 37.8% | viability, T/C (second compound 0.00949 µM, first compound 0.00316 µM) 80.5% | viability, T/C (second compound 0.00949 µM, first compound 0.01 µM) 84.8% | viability, T/C [9] 93.2% | viability, T/C [10] 85.7% | viability, T/C [11] 55% | viability, T/C [12] 45% | viability, T/C (second compound 0.03 µM, first compound 0.00316 µM) 87.1% | viability, T/C (second compound 0.03 µM, first compound 0.01 µM) 97.6% | viability, T/C [13] 84.2% | viability, T/C [14] 82.5% | viability, T/C [15] 52.6% | viability, T/C [16] 43.6% | viability, T/C (second compound 0.0949 µM, first compound 0.00316 µM) 79.4% | viability, T/C (second compound 0.0949 µM, first compound 0.01 µM) 76.5% | viability, T/C [17] 115% | viability, T/C [18] 89.8% | viability, T/C [19] 59.6% | viability, T/C [20] 46.1% | viability, T/C (second compound 0.3 µM, first compound 0.00316 µM) 78.7% | viability, T/C (second compound 0.3 µM, first compound 0.01 µM) 104% | viability, T/C [21] 94.8% | viability, T/C [22] 94.1% | viability, T/C [23] 61.7% | viability, T/C [24] 44.6%
450 nM: IC50 (second compound 0.03 µM)
> 1000 nM: IC50 (second compound 0.000949 µM)
697 nM: IC50 (second compound 0.3 µM)
562 nM: IC50 (second compound 0.00949 µM)

CC(=O)OC12COC1CC(O)C1(C)C(=O)C(O)C3=C(C)C(OC(=O)C(O)C(NC(=O)OC(C)(C)C)c4ccccc4)CC(O)(C(OC(=O)c4ccccc4)C21)C3(C)C (centres undefined) + CCn1c(-c2cccnc2C(C)OC)c2c3cc(ccc31)N1CCOC(CC(NC(=O)C(C(C)C)N(C)C(=O)C3(F)CCN(C(=O)C#CC(C)(C)N(C)C)CC3)C(=O)N3CCCC(N3)C(=O)OCC(C)(C)C2)C1
< 31.6 nM: IC50 (second compound 0.3 µM)
> 10000 nM: IC50 (second compound 0.000949 µM) | IC50 (second compound 0.003 µM) | IC50 (second compound 0.00949 µM) | IC50 (second compound 0.03 µM) | IC50 (second compound 0.0949 µM)
inactive: viability, T/C [1] 52.5% | viability, T/C [2] 52.7% | viability, T/C [3] 57.8% | viability, T/C [4] 62.2% | viability, T/C (second compound 0.000949 µM, first compound 3.16 µM) 62.3% | viability, T/C (second compound 0.000949 µM, first compound 10 µM) 66.6% | viability, T/C [5] 59.5% | viability, T/C [6] 53.2% | viability, T/C [7] 53.8% | viability, T/C [8] 59.7% | viability, T/C (second compound 0.003 µM, first compound 3.16 µM) 70.7% | viability, T/C (second compound 0.003 µM, first compound 10 µM) 76.9% | viability, T/C [9] 60.5% | viability, T/C [10] 59.7% | viability, T/C [11] 53.1% | viability, T/C [12] 58.7% | viability, T/C (second compound 0.00949 µM, first compound 3.16 µM) 66.3% | viability, T/C (second compound 0.00949 µM, first compound 10 µM) 67.2% | viability, T/C [13] 57.6% | viability, T/C [14] 59.9% | viability, T/C [15] 56.1% | viability, T/C [16] 54.5% | viability, T/C (second compound 0.03 µM, first compound 3.16 µM) 68% | viability, T/C (second compound 0.03 µM, first compound 10 µM) 64.2% | viability, T/C [17] 53.6% | viability, T/C [18] 55% | viability, T/C [19] 52.3% | viability, T/C [20] 58.5% | viability, T/C (second compound 0.0949 µM, first compound 3.16 µM) 61% | viability, T/C (second compound 0.0949 µM, first compound 10 µM) 65.1% | viability, T/C [21] 45.6% | viability, T/C [22] 49.8% | viability, T/C [23] 41% | viability, T/C [24] 52.1% | viability, T/C (second compound 0.3 µM, first compound 3.16 µM) 53.7% | viability, T/C (second compound 0.3 µM, first compound 10 µM) 60.3%
